Data set [1] is described as follows: Ability to inhibit the growth of ovarian cell line 2008. Type of data set: cell-based, Homo sapiens.
A short description of data set [2]: Cytotoxicity against V79 chinese hamster lung cells was determined via MTT assay after 72 hr. The format is cell-based, Cricetulus griseus.
The nature of data set [3]: […] lethal dose in CF1 mice bearing fluid Ehrlich Ascites tumor at a dose of 75-100 mg/kg. Type of data set: ADME, organism-based. The conditions noted are these: mouse, in vivo.
Data set [4] can be described thus: Cytotoxicity against V79 chinese hamster lung cells was determined via MTT assay after 24 hr. The format is cell-based, Cricetulus griseus. On the technique in general: Tetrazolium dyes change colour on reduction, which living cells bring about.
A short description of data set [5]: Ability to inhibit the growth of human breast line MCF-7.

Turning to MOLYBDOCENE DICHLORIDE, the IC50 (as a rule, the concentration that gives 50% inhibition) stood at 700 µM in data set [1], 350 µM in data set [2], 820 µM in data set [4] and 620 µM in data set [5]. Also, the LD50 (as a rule, the dose at which mortality reaches 50%) in data set [3] amounted to 175 mg/kg.

The values above are taken from ChEMBL document CHEMBL1142737, “Organometallic anticancer agents: cellular uptake and cytotoxicity studies on thiol derivatives of the antitumor agent molybdocene dichloride” (J Med Chem, 2005).
